# Test results taken from patent US20050008623A1, “In vitro production of dendritic cells from CD14+ monocytes” (priority 2001, published 2005).
# Assays:
# Format in all cases: cell-based, human
# [1] = system: Langerhans cells generated in vitro; assay: Chemoattraction and migration of Langerhans cells of Example 6
# [2] = system: dendritic cells generated in vitro (CCR6 receptor); assay: Chemoattraction of undifferentiated immature dendritic cells (CCR6 functionality); settings: day 6 cells of Example 4
# Experimental: The culture medium is initially supplemented with a third cytokine, namely the cytokine IL-13 at a rate of 10 ng/ml. Before 2 days of culture at the most, the same culture medium devoid of IL-13 is added up to day 6 of culture.
# IDC (DC-SIGN+) = assay: Maturation marker DC-LAMP expression after TNFα, interstitial dendritic cells; settings: 200 IU/ml for 48 hours from day 6
# Experimental: (§1) On day 6, the cytokine TNFα is added at a rate of 200 IU/ml for 48 h.
# (§2) The advantage of a substantially homogeneous dual population of LC and IDC is the possibility of interacting with both cell types as in the in vivo situation. To study the maturation pathways of LC and IDC generated in vitro, we analyzed the intracytoplasmic expression of maturation marker DC-LAMP on both LC and IDC. To this end, the experiments were performed according to the following protocol: • 2.10^5 cells of a mixed population comprising LC and IDC generated in vitro are incubated successively with: • either 5 microliters of anti-DC-SIGN antibody (2 micrograms/milliliter) or 10 microliters of anti-Langerin antibody (2 micrograms/milliliter), for 30 minutes at 4° C.; • 10 microliters of anti-mouse goat antibody coupled with the fluorochrom FITC (Fluorescein IsoThioCyanate) at the concentration of 1 microgram/milliliter for 30 min at 4° C.; • blocking with normal mouse serum diluted to 1/20; • 10 microliters of anti-DC-LAMP antibody coupled with fluorochrom PE (PhycoErythrin) at the concentration of 1 microgram/milliliter for 30 minutes at 4° C. • the results are expressed as the percentage of LC which are DC-LAMP positive and IDC which are DC-LAMP positive. […]
# Langerin+LC population = assay: Maturation marker DC-LAMP expression after TNFα, Langerhans cells; settings: 200 IU/ml for 48 hours from day 6
# Experimental: as §1, §2
# [3] = system: dendritic cells generated in vitro (CCR7 receptor); assay: Chemoattraction of activated mature dendritic cells (CCR7 functionality); settings: activated mature cells of Example 8 (TNFα more than 20 hours)
# Experimental: Within the framework of the invention, the culture medium is initially supplemented with a third cytokine, namely the cytokine IL-13 at a rate of 10 ng/ml. The culture is carried out up to day 6, irrespective of the incubation time of the cytokine IL-13.
molecule,measurement,setting,value
IL-1β: cytokine under whose effect Langerhans cells migrate,migration of Langerhans cells,[1],migrating
MIP-3α: ligand of the specific receptor CCR6,chemoattraction of dendritic cells,[2],strongly chemoattracted
same,chemoattraction of Langerhans cells,[1],capable of being chemoattracted
TNFα,expression of maturation marker DC-LAMP on IDC,IDC (DC-SIGN+),do not express
same,percentage of LC which are DC-LAMP positive,Langerin+LC population,50%
"MIP-3β: ligand of the specific receptor CCR7 (protein, UniProt Q99731 22-98, looked up) C-C motif chemokine 19: GTNDAEDCCLSVTQKPIPGYIVRNFHYLLIKDGCRVPAVVFTTLRGRQLCAPPDQPWVERIIQRLQRTSAKMKRRSS",chemoattraction of dendritic cells,[3],strongly chemoattracted
